Measured values as given in patent US9686982B2, “Treatment of potatoes and root vegetables during storage” (AMVAC CHEMICAL CORPORATION, priority 2013, dated 2017).

Legend:
[1] = tested on: tubers (cv Alturas); assay: Tuber firmness measured with TA-XT-2 texture analyzer; type: in vivo, potato; details: 115 ppm; for Tuber firmness (N) Average / Tuber firmness (N) Rep 1 / Tuber firmness (N) Rep 2 / Tuber firmness (N) Rep 3 / Tuber firmness (N) Rep 4: stored at 8° C.; for Tuber firmness (N) Rep 1 / Tuber firmness (N) Rep 2 / Tuber firmness (N) Rep 3 / Tuber firmness (N) Rep 4: mean of 6 tubers
Method: The source of tubers for this study was Telford Farms in Paul, Id. The storage unit temperature set point was 48.5° F. (9° C.). The tuber pulp temperatures ranged from 49 to 53.6° F. (9 to 12° C.) depending upon their location in the pile. Untreated tubers (cv Alturas) were selected from storage on Jul. 2, 2013 (prior to SmartBlock® application) to serve as untreated controls. About 200 lbs (91 kg) of these were distributed into 4 coolers with cold packs and transported to the Fed Ex office in Twin Falls, Id. at 1:45 pm where they remained in the air conditioned office until 6:23 pm when they left the facility. Untreated tubers to arrived in Pullman at 11:45 am on July 3.
SmartBlock® was applied at a rate of 4.2 fluid oz ton^−1 (136 mL MT^−1) to tubers remaining in the Telford Farms storage on July 2. Ventilation was suspended for an estimated 12 to 18 hrs. post treatment. A shipment of the treated tubers was packed as described above and delivered to Fed Ex in Twin Falls for shipment on July 3. The shipment arrived in Pullman on July 5 at 11:30 am.
Tubers were sorted into weight categories immediately upon arrival in Pullman, working at room temperature (˜25° C.) and in dim light (0.16-1.34 μE sec^−1 m^−2). Two experimental groups were created from the untreated (control) tubers; those with one or more sprouts ≧0.5 cm and those with no significant (>2 mm) sprouts. Sorting of tubers and their assignment to treatment groups for the various experiments was accomplished within 1.5 hr. and subsequently all tubers were placed in dark, walk-in storage at 8° C. with 85 to 90% RH. Humidity was maintained through the use of a household room humidifier, water on the concrete floor, and damp burlap placed on the empty shelves.
Tubers for firmness measurements were sorted by treatment and blocked for size. Each treatment group (containing at least 24 tubers) was stored in a plastic tote in the walk-in cold room at 8° C. Damp burlap was placed atop the tote so as not to contact the tubers directly. Burlap was re-wetted every two days. At 6, 13, 20, and 27 days after treatment (DAT), six tubers from each rep of each treatment (3-decen-2-one-treated and non-treated not sprouted) were selected and gently rinsed under cold running water to remove surface soil. The tubers were placed in plastic tubs and covered with damp paper towels for transport to the testing facility.
A TA-XT-2 texture analyzer (Stable Microsystems) was used to test tubers for firmness. A section of peel was removed from the midsection on opposite sides of the tuber. An 8-mm probe was lowered into the tuber tissue within this peeled area to a distance of 5 mm at a speed of 1 mm s^−1. Firmness was recorded as the N (m kg s−1) required to achieve the specified penetration. The two readings per tuber were averaged. Analysis of variance was performed on the data set.

[2] = tested on: dry rot (Fusarium sambucinum); assay: Disease defects in commercial storage in Canada (Storage Bin 3); type: in vivo
Method: (§1) One group of sprouted, diseased tubers (Storage Bin 3) were treated with 3-decen-2-one (as SmartBlock®) at the rate of 115 ppm using a hot fogging method. Another group of tubers was left untreated as a control.

[3] = tested on: Potato variety FL 2053; assay: Sprout control in commercial storage in Canada (Storage Bin 3); type: in vivo; details: 115 ppm hot fogging, sprouted diseased tubers, FIG. 4
Method: as §1

[4] = Dec. 10, 2013, final grading after 115 ppm thermal fog

CCCCCCC=CC(C)=O [3-decen-2-one]
% Increase (tuber firmness vs untreated) ([1]; 6 days after treatment): 4.09% | Tuber firmness (N) Average ([1]; 6 days after treatment): 75.38 N | Tuber firmness (N) Rep 1 ([1]; 6 days after treatment): 67.84 N | Tuber firmness (N) Rep 2 ([1]; 6 days after treatment): 79.18 N | Tuber firmness (N) Rep 3 ([1]; 6 days after treatment): 75.64 N | Tuber firmness (N) Rep 4 ([1]; 6 days after treatment): 78.85 N | % Increase (tuber firmness vs untreated) ([1]; 13 days after treatment): 2.80% | Tuber firmness (N) Average ([1]; 13 days after treatment): 73.45 N | Tuber firmness (N) Rep 1 ([1]; 13 days after treatment): 73.22 N | Tuber firmness (N) Rep 2 ([1]; 13 days after treatment): 67.34 N | Tuber firmness (N) Rep 3 ([1]; 13 days after treatment): 73.98 N | Tuber firmness (N) Rep 4 ([1]; 13 days after treatment): 79.26 N | % Increase (tuber firmness vs untreated) ([1]; 20 days after treatment): 3.28% | Tuber firmness (N) Average ([1]; 20 days after treatment): 74.90 N | Tuber firmness (N) Rep 1 ([1]; 20 days after treatment): 74.51 N | Tuber firmness (N) Rep 2 ([1]; 20 days after treatment): 74.63 N | Tuber firmness (N) Rep 3 ([1]; 20 days after treatment): 72.81 N | Tuber firmness (N) Rep 4 ([1]; 20 days after treatment): 77.64 N | symptoms of dry rot compared to untreated controls ([2]; 115 ppm hot fogging, sprouted diseased tubers, FIG. 4): decreased or eliminated symptoms of dry rot | % Total Defects ([2]; Dec. 10, 2013, bin unloaded after 115 ppm thermal fog on Nov. 13, 2013 (14.30 before treatment), variety FL 2053): 4.23% | moistness of tubers [2, 4]: tubers were not moist and mold | mold development [2, 4]: development had been arrested. | Change (of % total defects) ([2]; Dec. 10, 2013 versus Nov. 13, 2013 before treatment, 115 ppm thermal fog): -70.4 | sprouting compared to untreated controls [3]: reduced/prevented sprouting
